In US11905260B1, “N′-(1-naphthoyloxy)-2-(benzo[d]oxazol-2-yl)acetimidamide as an antimicrobial compound” (KING FAISAL UNIVERSITY, priority 2023, dated 2024):

Legend:
Bacillus cereus = test: agar plate disc-diffusion, antibacterial activity by inhibition zone; type: cell-based; details: nutrient agar, 37° C., 48 hours
Description: (§1) The agar plate disc-diffusion method was applied. […] The discs were then placed onto the surface of agar plates (nutrient agar for bacteria and Sabouraud's dextrose agar for fungi) seeded with the test organism. Each plate contained 15 mL of the agar medium, previously seeded with 0.2 mL of the broth culture of each organism pregrown for 18 hours. The plates were incubated at 37° C. for 48 hours, and 72 hours for fungi. The inhibition zones was measured in mm. Discs impregnated with DMSO were used as a control, and its inhibition zone was subtracted from the tested compound actual inhibition zone.

Escherichia coli = test: as above; type: cell-based; details: nutrient agar, 37° C., 48 hours
Description: as §1

Pseudomonas aeruginosa = test: as above; type: cell-based; details: nutrient agar, 37° C., 48 hours
Description: as §1

Staphylococcus aureus = test: as above; type: cell-based; details: nutrient agar, 37° C., 48 hours
Description: as §1

Aspergillus flavus = test: agar plate disc-diffusion, antifungal activity by inhibition zone; type: cell-based; details: Sabouraud's dextrose agar, 72 hours
Description: as §1

[1] = test system: Chrysosporium keratinophilum; test: as above; type: cell-based; details: Sabouraud's dextrose agar, 72 hours
Description: as §1

different microbes = test: antimicrobial activity, overall statement; type: cell-based; details: summary in words
Description: The agar plate disc-diffusion method was applied. Sterilized filter papers (6 mm in diameter) were wetted with 10 μL of a solution N′-(1-naphthoyloxy)-2-(benzo[d]oxazol-2-yl)acetimidamide (3) to be tested, containing 10 mg/mL in DMSO, and the discs were allowed to air dry. The discs were then placed onto the surface of agar plates (nutrient agar for bacteria and Sabouraud's dextrose agar for fungi) seeded with the test organism. Each plate contained 15 mL of the agar medium, previously seeded with 0.2 mL of the broth culture of each organism pregrown for 18 hours. The plates were incubated at 37° C. for 48 hours, and 72 hours for fungi. The inhibition zones was measured in mm. Discs impregnated with DMSO were used as a control, and its inhibition zone was subtracted from the tested compound actual inhibition zone.

[2] = A = concentration of comp. = 10,000 μL
[3] = B = concentration of comp. = 30,000 μL
[4] = C = concentration of comp. = 50,000 μL

Compound: N/C(Cc1nc2ccccc2o1)=N\OC(=O)c1cccc2ccccc12 [compound 3, N′-(1-naphthoyloxy)-2-(benzo[d]oxazol-2-yl)acetimidamide]
- inhibition zone, Bacillus Cereus (Bacillus cereus; [2]): 23 mm
- inhibition zone, Bacillus Cereus (Bacillus cereus; [3]): 27 mm
- inhibition zone, Bacillus Cereus (Bacillus cereus; [4]): 36 mm
- inhibition zone, Escherichia coli (Escherichia coli; [2]): 27 mm
- inhibition zone, Escherichia coli (Escherichia coli; [3]): 34 mm
- inhibition zone, Escherichia coli (Escherichia coli; [4]): 51 mm
- inhibition zone, Pseudomonas aeruginosa (Pseudomonas aeruginosa; [2]): 22 mm
- inhibition zone, Pseudomonas aeruginosa (Pseudomonas aeruginosa; [3]): 24 mm
- inhibition zone, Pseudomonas aeruginosa (Pseudomonas aeruginosa; [4]): 38 mm
- inhibition zone, Staphylococcus aureus (Staphylococcus aureus; [2]): 26 mm
- inhibition zone, Staphylococcus aureus (Staphylococcus aureus; [3]): 30 mm
- inhibition zone, Staphylococcus aureus (Staphylococcus aureus; [4]): 38 mm
- inhibition zone, Aspergillus flavus (Aspergillus flavus; [2]): 24 mm
- inhibition zone, Aspergillus flavus (Aspergillus flavus; [3]): 26 mm
- inhibition zone, Aspergillus flavus (Aspergillus flavus; C =): 37 mm
- inhibition zone, Chrysosporium keratinophilum [1, 2]: 27 mm
- inhibition zone, Chrysosporium keratinophilum [1, 3]: 30 mm
- inhibition zone, Chrysosporium keratinophilum [1, 4]: 51 mm
- antimicrobial activities against different microbes (different microbes): excellent antimicrobial activities
- melting point: 131 to 132 °C
